Source: the METLIN SMRT retention time set (Domingo-Almenara et al. 2019)

Assay: gradient 5% acetonitrile 3 min, to 50% in 2 min, to 85% in 15 min, held 3 min, 100 µL/min
Details: column: Zorbax Extend-C18 2.1 x 50 mm; eluents: water / acetonitrile, 0.1% formic acid
Summary of the method: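 Pure standards were run in mixtures of ~100 molecules by HPLC coupled to a quadrupole time-of-flight mass spectrometer. The column was a Zorbax Extend-C18 (2.1 × 50 mm, 1.8 μm) at 100 μL/min, with water and acetonitrile each containing 0.1% formic acid, in positive and negative ionization mode. Dead and dwell volumes were 40 μL and 900 μL. Retention time was taken from computationally picked adduct peaks, each manually inspected, with data collected over 3 months.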

Compound | RP-LC retention time [s]
CCOc1cc(-c2ccccc2)nc2ccc(NC(=O)NCC(=O)OC)cc12 | 651
Cc1cc(C)n(-c2ccnc(N3CCC(C(=O)NCCN4CCCCC4)CC3)n2)n1 | 601
Cc1ccc2c(c1)C(=O)NC1(CCN(C(=O)c3ccc(F)c(F)c3)CC1)N2C | 795
COCC(=O)NC1CCN(c2ccc(C)cc2)C1=O (stereo unspecified) | 666
CCn1cnc2ccc(-c3noc(CNC(=O)c4ccccc4)n3)cc21 | 620
Cc1oc(-c2ccc(C(=O)N3CCN(C)CC3)cc2)nc1CN1CCc2ccccc21 | 675
O=C(Cn1c(=O)cc(-c2nc(C3CC3)no2)c2ccccc21)NCc1cccc(Cl)c1 | 979
CCc1cc(C(=O)NCc2ccc(C)cc2)nc2ccnn12 | 985
O=C(NCc1cccs1)c1nc(-c2ccc(N3CCCC3)cc2)no1 | 1110
O=C(NC1CCN(Cc2ccccc2)CC1)c1ccccc1Cl | 549
Cc1ccc(CCNC(=O)c2cc3n(n2)CC(C)(C(=O)NCc2ccccc2)N(C)C3=O)cc1 (stereo unspecified) | 815
Cc1c2c(nn1-c1ccc(SCc3ccc(F)cc3)nn1)CCC2 | 1280
Cc1cc(NC(=O)C2CCN(C(=O)c3c[nH]c4ccccc34)CC2)no1 | 639
COc1ccc(Cl)cc1NC(=O)CSc1nccc(N2CCN(c3cc(C)ccc3C)CC2)n1 | 1160
O=C(CN1C(=O)CCCc2cc(S(=O)(=O)N3CCCCC3)ccc21)Nc1ccccc1 | 885
Cc1noc(-c2ccc(SCC(=O)Nc3ccc(S(N)(=O)=O)cc3)nc2)n1 | 705
O=C(Cc1csc(NC(=O)c2ccco2)n1)Nc1nc2ccc([N+](=O)[O-])cc2s1 | 797
O=C([C@@H]1C[C@H](F)CN1C(=O)c1cc(F)ccc1F)N1CCCCC1 | 700

Compound | RP-LC retention time [s]
COC(=O)C1=CN(c2ccc(C)cc2)c2cc(F)ccc2S1(=O)=O | 946
COC(=O)c1ccc(NC(=O)Cc2csc3nc(-c4ccc(OC)c(OC)c4)cn23)cc1 | 734
Cc1noc(-c2nn(C)c3c2CN(C(=O)Nc2ccccc2C(F)(F)F)CC3)n1 | 709
O=C(Nc1ccc(F)cc1F)Nc1nccn(-c2cccc(F)c2)c1=O | 971
CC(C)N1C(=O)c2cccnc2Sc2cc(NC(=O)C3CCCC3)ccc21 | 860
CCOC(=O)Cn1c(=O)c2c(nc3n2CC(C)CN3CCc2ccccc2)n(C)c1=O (stereo unspecified) | 985
CC(=O)N1CCc2cc(N3CC(C(=O)Nc4cccc(C)c4)CC3=O)ccc21 (stereo unspecified) | 712
CCN1c2ccc(C)cc2C(=O)NC12CCN(C(=O)c1ccc(F)cc1)CC2 | 828
CCN1CCN(CCCNC(=O)CCCN2C(=O)COc3ccc(C)cc32)CC1 | 585
O=C(NCCS(=O)(=O)N1CCN(c2ncccn2)CC1)c1cc2ccccc2o1 | 727
CCNC(=O)c1cc2c(-c3cc(OCCN4CCCC4)c(Cl)cc3Cl)nc(N)nc2s1 | 711
CCn1c(=O)c2ccccc2n(Cc2nc(-c3ccc(Br)cc3)no2)c1=O | 1110
CCn1cc(CCNC(=O)C(C)C)c2cccnc21 | 612
CCN1c2ccccc2C(=O)NC12CCN(C(=O)NCc1ccc(F)cc1)CC2 | 769
COc1ccccc1C(=O)N1CCc2c(c(-c3nnc(-c4ccccc4Cl)o3)nn2C)C1 | 806
CC1CCN(C(=O)c2cc3c(s2)CCN(C(=O)c2ccc(Cl)cc2)C3)CC1 | 987
COCc1noc([C@@H]2CC(F)(F)CN2C(=O)CC(C)(C)C)n1 | 830
O=C(CSc1ccc(N2CCCC(C(=O)NC3CC3)C2)nn1)Nc1cccc(C(F)(F)F)c1 (stereo unspecified) | 687
